In ChEMBL document CHEMBL5325464, “Design, synthesis and evaluation the bioactivities of novel 1,3-dimethyl-6-amino-1H-indazole derivatives as anticancer agents” (Bioorg Med Chem, 2023):
The source made the active and inactive calls. The calls are words filed in the database; no cut-off is given here.

Experiments:
MCF7 = test: Cytotoxicity against human MCF7 cells assessed as reduction of cell viability at 25 uM measured after 24 hrs by MTT assay; type: functional
[1] = Cytotoxicity against human DPSC cells assessed as reduction of cell viability at 20 uM measured after 24 hrs by MTT assay; type: toxicity, cell-based
FaDu [2] = test: Cytotoxicity against human FaDu cells assessed as reduction of cell viability measured after 24 hrs by MTT assay; type: functional, cell-based
FaDu [3] = test: Cytotoxicity against human FaDu cells assessed as reduction of cell viability at 20 uM measured after 24 hrs by MTT assay; type: functional
[4] = Cytotoxicity against human YD-15 cells assessed as reduction of cell viability at 50 uM measured after 24 hrs by MTT assay; type: functional
[5] = target: T1, Indoleamine 2,3-dioxygenase 1 (Homo sapiens, UniProt P14902); test: Inhibition of human IDO1 expressed in human FaDu cells at IC50 incubated for 24 hrs by ELISA assay; type: cell-based
Target sequence in this assay (P14902 whole entry, looked up): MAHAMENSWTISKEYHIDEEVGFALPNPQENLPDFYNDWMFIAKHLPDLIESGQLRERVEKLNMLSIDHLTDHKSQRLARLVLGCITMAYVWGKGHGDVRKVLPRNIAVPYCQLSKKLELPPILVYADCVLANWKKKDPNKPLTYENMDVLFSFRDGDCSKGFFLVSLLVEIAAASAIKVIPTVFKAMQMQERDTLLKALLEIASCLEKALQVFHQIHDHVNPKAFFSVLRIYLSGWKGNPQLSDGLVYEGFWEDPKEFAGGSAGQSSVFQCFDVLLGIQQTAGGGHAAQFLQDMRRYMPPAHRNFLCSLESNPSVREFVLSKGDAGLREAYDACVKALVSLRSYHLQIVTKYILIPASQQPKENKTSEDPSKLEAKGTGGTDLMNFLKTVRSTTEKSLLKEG

[6] = Activation of ERK pathway in human FaDu cells assessed as decrease in JNK phosphorylation upto 3 uM measured after 24 hrs by Western blotting analysis; type: cell-based; settings: filed as activator
FaDu [7] = test: Inhibition of cell migration in human FaDu cells measured after 24 hrs by wound healing assay; type: functional, cell-based; settings: dose 1-3 µM
[8] = Activation of ERK pathway in human FaDu cells assessed as effect on p38 phosphorylation upto 3 uM measured after 24 hrs by Western blotting analysis; type: cell-based
[9] = target: T1, Indoleamine 2,3-dioxygenase 1; test: Inhibition of human IDO1 expressed in human FaDu cells incubated for 24 hrs by Western blotting analysis; type: cell-based
Target sequence in this assay (P14902 whole entry, looked up): as above

FaDu [10] = test: Induction of apoptosis in human FaDu cells assessed as nuclear fragmentation upto 3 uM measured after 24 hrs by DAPI staining based fluorescence microscopic analysis; type: functional, cell-based
[11] = Activation of ERK pathway in human FaDu cells assessed as increase in ERK phosphorylation upto 3 uM measured after 24 hrs by Western blotting analysis; type: cell-based; settings: filed as activator
FaDu [12] = test: Induction of apoptosis in human FaDu cells assessed as activation of cleaved caspase 3 level upto 3 uM measured after 24 hrs by Western blot analysis; type: functional, cell-based
FaDu [13] = test: Induction of apoptosis in human FaDu cells assessed as nuclear condensation upto 3 uM measured after 24 hrs by DAPI staining based fluorescence microscopic analysis; type: functional, cell-based
FaDu [14] = test: Induction of apoptosis in human FaDu cells assessed as activation of PARP level upto 3 uM measured after 24 hrs by Western blot analysis; type: functional, cell-based
[15] = target: T1, Indoleamine 2,3-dioxygenase 1; test: Inhibition of human IDO1 expressed in human FaDu cells at 2.78 uM incubated for 24 hrs by ELISA assay relative to control; type: cell-based
Target sequence in this assay (P14902 whole entry, looked up): as above

FaDu [16] = test: Downregulation of MMP9 expression in human FaDu cells at 1 to 3 uM incubated for 24 hrs by Western blot analysis; type: functional, cell-based; settings: dose 1-3 µM
[17] = target: T1, Indoleamine 2,3-dioxygenase 1; test: Inhibition of human recombinant IDO1 incubated for 1 hr by HPLC analysis
Target sequence in this assay (P14902 whole entry): as the sequence (P14902 whole entry, looked up) above

| SMILES | Activity (MCF7) [%] | Activity [1] [%] | IC50 (FaDu [2]) [µM] | Activity (FaDu [3]) [%] | Activity [4] [%] | IDO1 inhibition (qualitative) [5] | also measured |
| --- | --- | --- | --- | --- | --- | --- | --- |
| Cc1nn(C)c2cc(NCc3ccncc3)ccc12 | 93.76 | 82.84 | > 50 | 86.72 | 97.98 |  |  |
| COc1ccc(CNc2ccc3c(C)nn(C)c3c2)cc1 | 102.24 | 91.62 | 6.67 | 10.4 | 67.1 | Active |  |
| Cc1nn(C)c2cc(NCc3ccc(Br)cc3)ccc12 | 102.61 | 94.66 | 2.78 | 8.29 | 7.87 |  | Activity [6]: Active; inhibition (FaDu [7]): Dose-Dependent Effect; Activity [8]: inactive; inhibition [9]: Dose-Dependent Effect; Activity (FaDu [10]): Active; Activity [11]: Active; Activity (FaDu [12]): Active; Activity (FaDu [13]): Active; Activity (FaDu [14]): Active; inhibition [15]: 45.7%; Activity (FaDu [16]): Active |
| COc1ccc(CNc2ccc3c(C)nn(C)c3c2)cc1O | 95.71 | 86.87 | 6.19 | 7.26 | 99.01 | Active |  |
| Cc1nn(C)c2cc(NCc3ccc(N(C)C)cc3)ccc12 | 84.75 | 91.6 | > 50 | 93.5 | 26.86 |  |  |
| COc1cc(CNc2ccc3c(C)nn(C)c3c2)cc(OC)c1OC | 92.8 | 82.54 | 19.9 | 49.4 | 86.71 |  |  |
| Cc1nn(C)c2cc(NCc3ccc(O)cc3)ccc12 | 100.39 | 94.7 | > 50 | 87.72 | 98.59 |  |  |
| COc1ccc(CNc2ccc3c(C)nn(C)c3c2)c(OC)c1OC | 104.07 | 90.13 | 1.87 | 7.8 | 101.41 | Active |  |
| O=C(NNc1ccccc1)c1n[nH]c2cc(Br)ccc12 |  |  |  |  |  |  | IC50 [17]: 0.72 µM |
| Cc1nn(C)c2cc(NCc3ccc(F)c(F)c3)ccc12 | 100.45 | 90.4 | 3.49 | 8.08 | 63.3 | Active |  |
| Cc1nn(C)c2cc(NCc3ccc(Cl)cc3)ccc12 | 101.58 | 84.13 | 3.57 | 8.43 | 52.82 | Active |  |
| Cc1nn(C)c2cc(NCc3ccc([N+](=O)[O-])cc3)ccc12 | 98.33 | 100.99 | 11.2 | 7.77 | 94.88 | Active |  |
| COc1ccc(CNc2ccc3c(C)nn(C)c3c2)c(O)c1 | 88.27 | 84.9 | > 50 | 84.68 | 102.06 |  |  |
